Read-outs that look alike come from different tables or passages of the source.
Tests used:
[1] = test system: HDAC; details: Table 4, HDAC class; cited from earlier work
[2] = test system: Lgr5+ cochlear cells; test: Lgr5+ Assay (in vitro Lgr5+ cell proliferation assay); format: cell-based
[3] = human, in vivo
From the text: Patients underwent physical examination of weight and height, vital signs (body temperature, pulse rate, blood pressure), 12-lead electrocardiogram (ECG), drug screen, clinical laboratory testing (hematology, serum chemistry, urinalysis), urine pregnancy test, and hepatitis B and C antibody tests.

[4] = target: LSD1 (Homo sapiens, UniProt O60341); details: Table 6, LSD1; read-out: pKi or IC50 (converted); cited from earlier work
[5] = target: EZH2 (Homo sapiens, UniProt O75530+Q15910); details: Table 7; includes EED, SAM-competitive and SAH-hydrolase inhibitors; read-out: pKi or IC50 (converted); cited from earlier work
EZH2 (Homo sapiens, UniProt O75530+Q15910), sequence (Q15910 whole entry): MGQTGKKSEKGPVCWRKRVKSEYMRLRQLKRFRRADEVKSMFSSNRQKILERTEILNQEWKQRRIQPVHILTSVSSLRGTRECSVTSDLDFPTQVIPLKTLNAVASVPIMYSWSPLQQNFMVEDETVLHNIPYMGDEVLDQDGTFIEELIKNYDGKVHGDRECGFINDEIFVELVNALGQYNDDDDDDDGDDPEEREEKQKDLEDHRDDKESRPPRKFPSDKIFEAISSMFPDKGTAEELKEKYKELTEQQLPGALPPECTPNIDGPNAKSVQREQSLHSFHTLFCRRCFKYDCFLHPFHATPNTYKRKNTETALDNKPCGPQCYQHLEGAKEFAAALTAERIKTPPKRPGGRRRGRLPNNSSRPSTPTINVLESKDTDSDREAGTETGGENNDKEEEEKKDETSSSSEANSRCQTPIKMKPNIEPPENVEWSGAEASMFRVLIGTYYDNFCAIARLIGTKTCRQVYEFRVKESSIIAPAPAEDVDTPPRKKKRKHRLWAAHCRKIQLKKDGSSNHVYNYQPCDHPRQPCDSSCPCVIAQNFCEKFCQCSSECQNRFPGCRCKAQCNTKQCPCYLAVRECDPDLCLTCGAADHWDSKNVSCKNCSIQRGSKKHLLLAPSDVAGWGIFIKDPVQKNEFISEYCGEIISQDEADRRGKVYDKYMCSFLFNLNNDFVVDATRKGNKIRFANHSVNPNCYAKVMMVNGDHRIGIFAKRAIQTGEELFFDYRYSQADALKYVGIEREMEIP
EZH2 (Homo sapiens, UniProt O75530+Q15910), sequence (O75530 whole entry): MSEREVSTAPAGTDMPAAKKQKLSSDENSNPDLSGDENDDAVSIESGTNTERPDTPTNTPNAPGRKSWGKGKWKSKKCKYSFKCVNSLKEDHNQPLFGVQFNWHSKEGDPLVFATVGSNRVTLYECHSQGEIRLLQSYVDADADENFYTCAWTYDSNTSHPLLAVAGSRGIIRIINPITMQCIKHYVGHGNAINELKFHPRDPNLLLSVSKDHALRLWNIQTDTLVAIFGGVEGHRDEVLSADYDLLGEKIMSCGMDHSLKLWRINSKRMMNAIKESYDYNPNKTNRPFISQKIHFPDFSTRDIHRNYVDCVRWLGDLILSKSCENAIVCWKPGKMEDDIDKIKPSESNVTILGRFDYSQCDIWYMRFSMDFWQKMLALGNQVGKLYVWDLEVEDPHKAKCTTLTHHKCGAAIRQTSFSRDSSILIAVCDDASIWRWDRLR
EZH2 (Homo sapiens, UniProt O75530+Q15910), sequence (Q15022 whole entry partner): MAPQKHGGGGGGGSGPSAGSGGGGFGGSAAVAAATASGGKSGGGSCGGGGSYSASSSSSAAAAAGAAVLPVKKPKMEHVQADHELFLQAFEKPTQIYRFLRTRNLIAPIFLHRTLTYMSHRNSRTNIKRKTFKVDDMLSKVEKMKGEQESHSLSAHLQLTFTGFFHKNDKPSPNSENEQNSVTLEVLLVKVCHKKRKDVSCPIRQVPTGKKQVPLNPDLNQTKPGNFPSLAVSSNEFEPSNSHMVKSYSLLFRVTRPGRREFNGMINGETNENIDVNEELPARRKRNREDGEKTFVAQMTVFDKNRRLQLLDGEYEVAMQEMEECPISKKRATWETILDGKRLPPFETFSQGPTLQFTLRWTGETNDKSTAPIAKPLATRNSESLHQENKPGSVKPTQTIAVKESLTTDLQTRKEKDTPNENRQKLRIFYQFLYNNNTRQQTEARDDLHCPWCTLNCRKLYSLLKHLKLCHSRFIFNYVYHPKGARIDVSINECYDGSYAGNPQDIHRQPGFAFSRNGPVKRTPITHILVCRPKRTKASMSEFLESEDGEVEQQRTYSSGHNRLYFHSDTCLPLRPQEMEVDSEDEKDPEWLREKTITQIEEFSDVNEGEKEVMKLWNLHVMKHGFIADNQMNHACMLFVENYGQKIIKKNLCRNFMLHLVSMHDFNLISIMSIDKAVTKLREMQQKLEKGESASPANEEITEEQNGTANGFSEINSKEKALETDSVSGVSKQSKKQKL
EZH2 (Homo sapiens, UniProt O75530+Q15910), sequence (Q09028 whole entry partner): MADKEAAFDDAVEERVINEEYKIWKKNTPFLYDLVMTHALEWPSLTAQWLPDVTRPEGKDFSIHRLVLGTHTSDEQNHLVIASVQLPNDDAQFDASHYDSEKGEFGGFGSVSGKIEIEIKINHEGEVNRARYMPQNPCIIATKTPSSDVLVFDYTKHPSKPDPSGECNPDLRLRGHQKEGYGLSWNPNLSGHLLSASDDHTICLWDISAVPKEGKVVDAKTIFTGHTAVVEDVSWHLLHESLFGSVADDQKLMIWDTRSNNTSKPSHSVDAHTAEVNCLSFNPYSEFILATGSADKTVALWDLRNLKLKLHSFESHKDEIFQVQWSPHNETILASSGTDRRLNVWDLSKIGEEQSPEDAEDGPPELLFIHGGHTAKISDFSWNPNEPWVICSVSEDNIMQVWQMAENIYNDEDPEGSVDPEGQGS

[6] = target: EZH-1 (Homo sapiens, UniProt Q92800); details: Table 7, cited from earlier work
EZH-1, sequence (Q92800 whole entry): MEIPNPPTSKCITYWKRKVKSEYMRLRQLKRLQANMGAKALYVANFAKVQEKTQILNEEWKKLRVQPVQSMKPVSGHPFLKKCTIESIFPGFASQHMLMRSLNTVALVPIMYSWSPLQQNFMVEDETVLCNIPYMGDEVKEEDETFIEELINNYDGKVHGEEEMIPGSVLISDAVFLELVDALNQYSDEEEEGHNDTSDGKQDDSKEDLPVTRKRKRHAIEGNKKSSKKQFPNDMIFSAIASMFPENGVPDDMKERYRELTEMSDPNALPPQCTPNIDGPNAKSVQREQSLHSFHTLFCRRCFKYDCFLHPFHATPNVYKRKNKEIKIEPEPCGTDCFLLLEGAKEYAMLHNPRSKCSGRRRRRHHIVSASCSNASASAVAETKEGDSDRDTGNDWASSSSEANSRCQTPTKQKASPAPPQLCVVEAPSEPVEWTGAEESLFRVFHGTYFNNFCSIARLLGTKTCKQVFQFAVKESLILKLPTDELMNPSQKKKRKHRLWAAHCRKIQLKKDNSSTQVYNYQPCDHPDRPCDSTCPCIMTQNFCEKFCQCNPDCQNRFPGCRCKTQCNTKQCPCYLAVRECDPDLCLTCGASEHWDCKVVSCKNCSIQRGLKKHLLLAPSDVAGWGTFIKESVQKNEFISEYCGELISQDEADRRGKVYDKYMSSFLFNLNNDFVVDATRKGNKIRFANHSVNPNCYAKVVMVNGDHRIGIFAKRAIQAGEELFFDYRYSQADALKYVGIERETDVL
EZH-1, sequence (O75530 whole entry partner): as the sequence (O75530 whole entry) above
EZH-1, sequence (Q15022 whole entry partner): as the sequence (Q15022 whole entry partner) above
EZH-1, sequence (Q09028 whole entry partner): as the sequence (Q09028 whole entry partner) above

[7] = target: EZH2 (Homo sapiens, UniProt Q15910); details: Table 7; literature, cells not named; cited from earlier work
EZH2 (Homo sapiens, UniProt Q15910), sequence (Q15910 whole entry, canonical isoform): as the sequence (Q15910 whole entry) above
EZH2 (Homo sapiens, UniProt Q15910), sequence (O75530 whole entry partner, canonical isoform): as the sequence (O75530 whole entry) above
EZH2 (Homo sapiens, UniProt Q15910), sequence (Q15022 whole entry partner, canonical isoform): as the sequence (Q15022 whole entry partner) above
EZH2 (Homo sapiens, UniProt Q15910), sequence (Q09028 whole entry partner, canonical isoform): as the sequence (Q09028 whole entry partner) above

[8] = test system: MAOs A and B; details: Table 6, single value, isoform not stated; read-out: Select MAOs A and B; cited from earlier work
[9] = Table 6, human; cited from earlier work
[10] = test system: TAZ; details: Table 10; literature, cells not named; cited from earlier work
[11] = Perilymph sampling after intratympanic injection, mass spectrometry; format: in vivo; details: mice, perilymph of 7 animals, within 0.5 hours after intratympanic injection of 10 µL with 87.6 mg/ml NaVPA and 1.39 mg/ml CHIR99021
Procedure: The effects of CHIR99021 and valproic acid (VPA) on hearing in mice with SNHL were examined. Ten-week-old CBA/CaJ mice were deafened using an established method in which mice were exposed to 8-16 kHz octave band noise for 2 hours at ≥116 dB (Wang et al., 2002). […] Auditory brainstem responses (ABRs) were obtained using tone-burst stimuli for frequencies spanning ˜80% of the cochlea 24 hours after noise administration to establish a baseline for recovery. Animals were dosed once following the 24 hour ABR. Distortion product otoacoustic emissions (DPOAEs) were not routinely analyzed since thresholds after treatment were above DPOAE detection levels. CHIR99021 and VPA were delivered locally by intratympanic injection into the middle ear using a pulled glass pipette, a technique that mimics the standard clinical middle ear injection technique used in humans. The delivery vehicle was adapted from previous work using thermo-reversible poloxamer gels to deliver drugs into the middle ear for diffusion into the cochlea (Salt et al, 2011; Wang et al, 2009). […] Using established techniques (Hirose et al., 2014), perilymph was sampled from 7 animals and analyzed using mass spectrometry to determine entry of CHIR99021 and VPA into the cochlea. Within 0.5 hours, CHIR99021 was detected at 3.5 μM+1.5 μM and VPA was detected at 310.3 μM+51.8 μM. […]

[12] = Table 1, GSK3 inhibitors, concentration range
[13] = Table 7, EZH2 inhibitors, concentration range
[14] = Table 10, TAZ activators, concentration range

C#CCC(CCCCCC)C(=O)O (stereo not drawn) [2-hexyl-4-pentynoic acid]
Class selectivity [1]: Class I

N#Cc1ccc2[nH]c(O)c(-c3ccc(CN4CCOCC4)cn3)c2c1 [AZD 1080]
Lgr5+ Assay [2, 12]: 1 to 5 µM

Cc1c[nH]c(-c2cnc(NCCNc3ccc(C#N)cn3)nc2-c2ccc(Cl)cc2Cl)n1 [CHIR99021]
time until cleared from the systemic circulation [3]: ≤ 24 h
Lgr5+ Assay [2, 12]: 2 to 6 µM

COc1cc(C)[nH]c(=O)c1CNC(=O)c1c(C)n([C@H](C)C2CCOCC2)c2ccccc12 [CPI-360]
Lgr5+ Assay [2, 13]: 0.1 to 10 µM

CCC(CC)n1ccc2c(C(=O)NCc3c(C)cc(C)[nH]c3=O)cc(C#N)cc21 [Compound E11]
IC50 [4]: 0.243 µM
IC50 [5]: 0.013 µM
Lgr5+ Assay ([2]; Table 7, EZH2 inhibitors, concentration): 5 µM
Select vs EZH-1 ([6]; given as fold): 90x

Nc1nccc2c1ncn2[C@@H]1C=C(CO)[C@@H](O)[C@H]1O [DZNep]
Lgr5+ Assay ([2]; Table 7, EZH2 inhibitors, result in words): Activity
Lit Cell Poten [7]: 1 µM

CCc1c(N(CC)C2CCOCC2)cc2oc(C3CCN(C(C)C)CC3)cc2c1C(=O)NCc1c(C)cc(C)[nH]c1=O [EBI-2511]
IC50 [5]: 0.004 µM

N#Cc1c2c(c3nncn3c1NCc1ccco1)CN(Cc1ccccc1)CC2 [EED162]
IC50 [5]: 0.03 µM

CCCc1cc(C)[nH]c(=O)c1CNC(=O)c1cc(-c2ccnc(N3CCN(C)CC3)c2)cc2c1cnn2C(C)C [GSK343]
IC50 [5]: 0.0012 µM
Select vs EZH-1 ([6]; given as fold): 60x

Cc1cc(C)c(CNC(=O)c2cc(-c3ccc(N4CCN(C)CC4)nc3)cc3c2cnn3C(C)C)c(=O)[nH]1 [GSK926]
IC50 [5]: 0.0079 µM

Cc1ccc(C(=O)Nc2c[nH]nc2C(=O)NCCCOC(C)C)cn1 [GSK XXII]
Lgr5+ Assay [2, 12]: 0.2 to 1 µM

O=C(O)c1ccc(CN2CCC(CN[C@@H]3C[C@H]3c3ccccc3)CC2)cc1 [GSK-2879552]
IC50 [8]: 20 µM

CC(C)=CCC/C(C)=C/CC/C(C)=C/CC/C(C)=C/CO [Geranylgeraniol]
IC50 [4]: 80 µM

C=CCNc1nc(N)c(C(=O)c2ccc(Cl)s2)s1 [IBS008738]
Lgr5+ Assay [2, 14]: 1.1 to 30 µM

CN1CCN(C(=O)[C@H](CCCN[C@@H]2C[C@H]2c2ccc(F)cc2)NC(=O)c2ccc(-n3ccnn3)cc2)CC1 [IMG-7289]
Human Plasma Conc, Cmax [9]: 0.063 µg/mL

Cc1cc(C)c(CN2CCc3c(Cl)cc(-c4c(C)noc4C)c(Cl)c3C2=O)c(=O)[nH]1 [PF-06726304]
IC50 [5]: 0.0011 µM
Lit Cell Poten [7]: 0.01 to 0.025 µM

COc1cc(C)[nH]c(=O)c1CN1CCc2c(Cl)cc([C@H](OC)C3COC3)c(Cl)c2C1=O [PF-06821497]
IC50 [5]: < 0.001 µM
Select vs EZH-1 ([6]; given as a concentration): 70 nM

C#CCN(C)Cc1ccccc1 [Pargyline]
IC50 [4]: 1000 µM

Oc1ccc(C=Cc2cc(O)cc(O)c2)cc1 [Resveratrol]
IC50 [4]: 15 µM

C/C(=N\NC(=O)c1cccc(S(=O)(=O)N2CCOCC2)c1)c1cc(Cl)ccc1O [SP-2509]
IC50 [8]: > 300 µM

Nc1ncnc2c1ncn2[C@@H]1O[C@H](C[C@@H](N)CC[C@H](N)C(=O)O)[C@@H](O)[C@H]1O [Sinefungin]
IC50 [5]: 0.02 µM

CCCC(CCC)C(=O)[O-].[Na+] [Sodium Valproate]
Class selectivity [1]: Class I

N[C@@H]1C[C@H]1c1ccccc1 [TCP]
Lgr5+ Assay ([2]; Table 6, concentration range): 0.1 to 20 µM
Human Plasma Conc, Cmax [9]: 0.03 to 0.2 µg/mL

CCCCc1nc2cc(-c3cccnc3)c(C)nc2n1Cc1ccc(-c2ccccc2-c2nn[nH]n2)cc1 [TM-25659]
Lgr5+ Assay [2, 14]: 10 to 100 µM
Lit Cell [10]: 10 to 100 µM

C=CCNc1nc(N)c(C(=O)c2ccc(F)s2)s1 [TT10]
Lgr5+ Assay [2, 14]: 1 to 10 µM
Lit Cell [10]: 1 µM

Cc1coc2c1C(=O)C(=O)c1c-2ccc2c1CC[C@H](O)[C@]2(C)O [Tanshindiol B]
IC50 [5]: 0.52 µM

Cc1coc2c1C(=O)C(=O)c1c-2ccc2c1CC[C@@H](O)[C@]2(C)O [Tanshindiol C]
IC50 [5]: 0.55 µM

CCCc1cc(C)[nH]c(=O)c1CNC(=O)c1cc(-c2ccc(N3CCN(C(C)C)CC3)nc2)cc2c1cnn2C(C)C [UNC1999]
IC50 [5]: 0.01 µM

CCCc1cc(C)[nH]c(=O)c1CNC(=O)c1cc(-c2ccc(N3CCN(C(=O)CCOCCOCCOCCOCCOCCOCCOCCOCCOCCOCCOCCOCCNC(=O)CCCC[C@@H]4SC[C@@H]5NC(=O)N[C@@H]54)CC3)nc2)cc2c1cnn2C(C)C [UNC 2399]
Lgr5+ Assay [2, 13]: 0.1 to 10 µM

CCCC(CCC)C(=O)O [VPA, valproic acid]
time to peak plasma concentrations [3]: ≤ 2 h
time until cleared from the systemic circulation [3]: ≤ 24 h
concentration detected in perilymph [11]: 310.3 µM

CC(C)=CCC/C(C)=C/CC/C(C)=C/CC/C(C)=C/C(=O)O [geranylgeranoic acid]
IC50 [4]: 120 µM

Thiourea
IC50 [8]: > 1250 µM
